Drawing on patent US10464927B2, “2,4-disubstituted pyrimidines as CDK inhibitors” (Shanghai Xunhe Pharmaceutical Technology Co. Ltd., priority 2016, dated 2019), this text covers IC50 for 23 compounds.

Structures are written as SMILES. A value given as a limit tells only on which side of the number the result lay.

What is called IC50 is the concentration at which inhibition is half-maximal.

The target of one assay is CDK6 (Homo sapiens (Human), UniProt Q00534). As to the kind of experiment: CDK6 protein kinase activity, Caliper mobility shift assay. It counts as biochemical. Conditions: GST-CDK6(1-326 end), substrate Peptide FAM-P8, 28° C. for 3 h. On the procedure: (§1) Activity Assay: The CDK6 protein kinase activity was measured using the Caliper mobility shift assay (see J. Biomol. Screen, 2009, PP31). The test compound was dissolved in DMSO and diluted with a kinase buffer solution (20 mM HEPES-pH 7.5, 0.01% Triton X-100, 10 mM MgCl2, 2 mM DTT) and 5 μL of compound at 5-fold final concentration of reaction dissolved in 10% DMSO was added in a 384-well plate. The compound-free control well was 5 μL of 10% DMSO, and the no-activity control well was 5 μL of kinase buffer. 10 μL of a 2.5-fold diluted CDK6 enzyme solution (GST-CDK6(1-326 end)) was added and incubated at room temperature for 10 min, and then 10 μL of the 2.5-fold diluted substrate solution Peptide FAM-P8 was added. The reaction was stopped by adding 25 μL of stop solution after incubation at 28° C. for 3 h, and the conversion rate data was read on a Caliper EZ Reader II (Caliper Life Sciences) and the conversion rate was converted to inhibition rate data according to above method. Among them, the inhibition rate %=(max−conversion)/(max−min)×100%.

The target of a further assay is CDK4 (Homo sapiens (Human), UniProt P11802). As to the kind of experiment: CDK4 protein kinase activity, Caliper mobility shift assay. It is filed as biochemical. Conditions: GST-CDK4(1-303 end), substrate Peptide FAM-P8, 28° C. for 3 h. As to the method: as §1, with “activity assay:” for “Activity Assay:”, “CDK4” for “CDK6”, “(GST-CDK4(1-303” for “(GST-CDK6(1-326”
CDK4, sequence (P11802 whole entry): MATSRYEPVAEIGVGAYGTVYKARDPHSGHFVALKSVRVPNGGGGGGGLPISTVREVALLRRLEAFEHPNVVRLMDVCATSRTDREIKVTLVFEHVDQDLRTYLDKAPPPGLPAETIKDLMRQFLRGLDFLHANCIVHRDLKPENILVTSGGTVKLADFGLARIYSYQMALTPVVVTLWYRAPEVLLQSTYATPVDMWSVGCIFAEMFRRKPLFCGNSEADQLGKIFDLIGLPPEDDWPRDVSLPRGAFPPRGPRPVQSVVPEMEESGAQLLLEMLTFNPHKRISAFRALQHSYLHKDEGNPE
CDK4, sequence (P30281 whole entry partner): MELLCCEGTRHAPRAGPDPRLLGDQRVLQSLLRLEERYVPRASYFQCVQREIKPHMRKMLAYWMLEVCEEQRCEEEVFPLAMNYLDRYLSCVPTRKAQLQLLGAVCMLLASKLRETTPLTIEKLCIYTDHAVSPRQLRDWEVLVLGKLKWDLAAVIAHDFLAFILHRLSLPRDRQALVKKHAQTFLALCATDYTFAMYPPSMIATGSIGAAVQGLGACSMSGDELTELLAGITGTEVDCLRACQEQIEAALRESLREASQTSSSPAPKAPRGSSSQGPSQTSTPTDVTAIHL

CDK6, sequence (Q00534 whole entry): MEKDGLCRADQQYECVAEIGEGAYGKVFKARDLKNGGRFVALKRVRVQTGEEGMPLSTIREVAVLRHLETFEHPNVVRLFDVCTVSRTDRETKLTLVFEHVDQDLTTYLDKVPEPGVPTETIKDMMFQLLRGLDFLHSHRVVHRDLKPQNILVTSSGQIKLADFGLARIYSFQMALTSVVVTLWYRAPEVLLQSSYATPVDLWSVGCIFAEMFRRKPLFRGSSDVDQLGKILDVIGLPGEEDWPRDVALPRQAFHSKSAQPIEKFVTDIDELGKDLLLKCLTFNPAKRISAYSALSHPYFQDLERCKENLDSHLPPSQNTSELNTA
CDK6, sequence (P30281 whole entry partner): as the sequence (P30281 whole entry partner) above

Turning to `CCN1CCN(Cc2ccc(Nc3ncc(F)c(-c4ncc5nc(C(=O)N(C)C)n(C)c5n4)n3)nc2)CC1` [Compound I-40, N-(5-(4-ethylpiperazin-1-methyl)-pyridin-2-yl)-5-fluoro-4-(9-methyl-8-formic acid diformamido-9H-purin-2-yl)pyrimidin-2-amine], the IC50 on CDK6 and on CDK4 was no more than 20 nM in each case.
In the case of `CCN1CCN(Cc2ccc(Nc3ncc(F)c(-c4ncnc5c4cc(C(C)=O)n5C4CC4)n3)nc2)CC1` [Compound I-41, N-(5-(4-ethylpiperazine-1-methyl)-pyridin-2-yl)-5-fluoro-4-(6-acetyl-7-cyclopropyl-7H-pyrrolo[2,3-d]pyrimidin-4-yl)pyrimidin-2-amine], the IC50 at CDK6 and at CDK4 was no more than 20 nM in each case.
For `CCN1CCN(Cc2ccc(Nc3ncc(F)c(-c4ccc5c(cc(C(=O)N(C)C)n5C(C)C)n4)n3)nc2)CC1` [Compound I-26, N-(5-(4-ethylpiperazine-1-methyl)-pyridin-2-yl)-5-fluoro-4-(1-isopropyl-2-formic acid diformamido-1H-4-azaindol-5-yl)pyrimidin-2-amine], the IC50 is 20 to 100 nM on CDK6 and no more than 20 nM on CDK4.
On to `CC(=O)c1cc2cc(-c3nc(Nc4ccc(N5CCNCC5)cn4)ncc3F)ccc2n1C(C)C` [Compound I-23, N-(5-(piperazin-1-yl)-pyridin-2-yl)-5-fluoro-4-(1-isopropyl-2-acetyl-1H-indol-5-yl)pyrimidin-2-amine], for which the IC50 on CDK6 and on CDK4 was no more than 20 nM each time.
`CCN1CCN(Cc2ccc(Nc3ncc(F)c(-c4ccc5c(n4)c(C(F)(F)F)nn5C4CCCC4)n3)nc2)CC1` [Compound I-46, N-(5-(4-ethylpiperazine-1-methyl)-pyridin-2-yl)-5-fluoro-4-(1-cyclopentyl-3-trifluoromethyl-4-aza-1H-indazol-5-yl)pyrimidin-2-amine]: the IC50 on CDK6 and on CDK4 was 20 to 100 nM in each case.
`CC(=O)c1cn(C2CCCCCC2)c2ccc(-c3nc(Nc4ccc(CN5CCN(C6CCCC6)CC5)cn4)ncc3F)cc12` [Compound I-20, N-(5-(4-cyclopentylpiperazin-1-methyl)-pyridin-2-yl)-5-fluoro-4-(1-cycloheptyl-3-acetyl-1H-indol-5-yl)pyrimidin-2-amine]: the IC50 on CDK6 and at CDK4 was no more than 20 nM each time.
Consider `CN(C)C(=O)c1c2ccc(-c3nc(Nc4ccc(N5CCNCC5)cn4)ncc3F)c(F)c2nn1C` [Compound I-31, N-(5-(piperazin-1-yl)-pyridin-2-yl)-5-fluoro-4-(2-methyl-3-formic acid diformamido-2H-7-fluoro-indazol-6-yl)pyrimidin-2-amine], for which the IC50 on CDK6 and on CDK4 was no more than 20 nM in each case.
Take `Fc1cnc(Nc2ccc(CN3CCN(C4CCCCC4)CC3)cn2)nc1-c1ccc2c(c1)c(C1CCC1)cn2C1CCCCC1` [Compound I-19, N-(5-(4-cyclohexylpiperazin-1-methyl)-pyridin-2-yl)-5-fluoro-4-(1-cyclohexyl-3-cyclobutyl-1H-indol-5-yl)pyrimidin-2-amine]: the IC50 on CDK6 was greater than 500 nM; on CDK4, no more than 20 nM.
Take `CCN1CCN(Cc2ccc(Nc3ncc(F)c(-c4ccc5nnc(C(C)C)n5c4)n3)nc2)CC1` [Compound I-6, N-(5-(4-ethylpiperazine-1-methyl)-pyridin-2-yl)-5-fluoro-4-(3-isopropyl-[1,2,4]triazolo[4,3-a]pyridin-6-yl)pyrimidin-2-amine]: the IC50 is 20 to 100 nM on CDK6 and no more than 20 nM on CDK4.
For `CCN1CCN(Cc2ccc(Nc3ncc(F)c(-c4ccc5c(c4)c(C(C)=O)cn5C4CCCC4)n3)nc2)CC1` [Compound I-4, N-(5-(4-ethylpiperazine-1-methyl)-pyridin-2-yl)-5-fluoro-4-(1-cyclopentyl-3-acetyl-1H-indol-5-yl)pyrimidin-2-amine], the IC50 was 20 to 100 nM on CDK6 and no more than 20 nM on CDK4.
On to `Cc1nc2cnc(-c3nc(Nc4ccc(N5CCNCC5)cn4)ncc3F)nc2n1C(C)C` [Compound I-8, N-(5-(piperazin-1-yl)-pyridin-2-yl)-5-fluoro-4-(9-isopropyl-8-methyl-9H-purin-2-yl)pyrimidin-2-amine], for which the IC50 at CDK6 was 20 to 100 nM; on CDK4, no more than 20 nM.
As to `CC(C)n1ccc2cc(-c3nc(Nc4ccc(N5CCNCC5)cn4)ncc3F)ccc21` [Compound I-2, N-(5-(piperazin-1-yl)-pyridin-2-yl)-5-fluoro-4-(1-isopropyl-1H-indol-5-yl)pyrimidine 2-amine], the IC50 on CDK6 and on CDK4 was no more than 20 nM throughout.
Take `CCC(CC)n1c(C(C)=O)cc2cc(-c3nc(Nc4ccc(CN5CCN(C)CC5)cn4)ncc3Cl)ccc21` [Compound I-15, N-(5-(4-methylpiperazine-1-methyl)-pyridin-2-yl)-5-chloro-4-(1-(3-pentyl)-2-acetyl-1H-indol-5-yl)pyrimidin-2-amine]: the IC50 on CDK6 is 20 to 100 nM; at CDK4 it was 100 to 500 nM.
As to `CC(C)c1nnc2ccc(-c3nc(Nc4ccc(N5CCNCC5)cn4)ncc3F)cn12` [Compound I-7, N-(5-(piperazin-1-yl)-pyridin-2-yl)-5-fluoro-4-(3-isopropyl-[1,2,4]triazolo[4,3-a]pyridine-6-yl)pyrimidin-2-amine], the IC50 at CDK6 and at CDK4 was no more than 20 nM throughout.
For `CCN1CCN(Cc2ccc(Nc3ncc(F)c(-c4ccc5c(c4)cc(C(C)=O)n5C(C)C)n3)nc2)CC1` [Compound I-24, N-(5-(4-ethylpiperazine-1-methyl)-pyridin-2-yl)-5-fluoro-4-(1-isopropyl-2-acetyl-1H-indol-5-yl)pyrimidin-2-amine], the IC50 on CDK6 and on CDK4 was no more than 20 nM throughout.
Regarding `Cn1nc2nc(-c3nc(Nc4ccc(N5CCNCC5)cn4)ncc3F)ccc2c1C1CCCC1` [Compound I-12, N-(5-(piperazin-1-yl)-pyridin-2-yl)-5-fluoro-4-(2-methyl-3-cyclopentyl-2H-7-azaindazol-6-yl)pyrimidin-2-amine], the IC50 at CDK6 and on CDK4 was no more than 20 nM each time.
For the compound `CN1CCN(c2ccc(Nc3ncc(F)c(-c4ncc5nc(C(=O)N(C)C)n(C6CCCC6)c5n4)n3)nc2)CC1` [Compound I-37], the IC50 was 20 to 100 nM on CDK6 and no more than 20 nM on CDK4.
In the same order, the values of `CN(C)C(=O)c1nn(C2CCCC2)c2ccc(-c3nc(Nc4ccc(N5CCNCC5)cn4)ncc3F)cc12` [Compound I-43, N-(5-(piperazin-1-yl)-pyridin-2-yl)-5-fluoro-4-(1-cyclopentyl-3-formic acid diformamido-1H-indazol-5-yl)pyrimidin-2-amine] are no more than 20 nM and no more than 20 nM.
For the compound `Cc1c(C(F)(F)F)c2cc(-c3ccnc(Nc4ccc(CN5CCN(C(C)C)CC5)cn4)n3)ccc2n1C` [Compound I-16, N-(5-(4-isopropylpiperazin-1-methyl)-pyridin-2-yl)-4-(1,2-dimethyl-3-trifluoromethyl-1H-indol-5-yl)pyrimidin-2-amine], the 50% inhibitory concentration (IC50) at CDK6 and at CDK4 was no more than 20 nM in each case.
For the compound `CCN1CCN(Cc2ccc(Nc3ncc(F)c(-c4ncc5nc(C)n(C(C)C)c5n4)n3)nc2)CC1` [Compound I-9, N-(5-(4-ethylpiperazine-1-methyl)-pyridin-2-yl)-5-fluoro-4-(9-isopropyl-8-methyl-9H-purin-2-yl)pyrimidin-2-amine], the IC50 at CDK6 and at CDK4 was 20 to 100 nM each time.
For the compound `CCN1CCN(Cc2ccc(Nc3ncc(F)c(-c4ccc5ncc(C#N)n5c4)n3)nc2)CC1` [Compound I-34, N-(5-(4-ethylpiperazine-1-methyl)-pyridin-2-yl)-5-fluoro-4-(3-cyano-imidazo[1,2-a]pyridin-6-yl)pyrimidin-2-amine], the IC50 at CDK6 and on CDK4 was no more than 20 nM in each case.
As to `Cc1nc2cnc(-c3nc(Nc4ccc(N5CCN(C)CC5)cn4)ncc3F)nc2n1C(C)C` [Compound I-47, N-(5-(4-methylpiperazin-1-yl)-pyridin-2-yl)-5-fluoro-4-(9-isopropyl-8-methyl-9H-purin-2-yl)pyrimidin-2-amine], the IC50 at CDK6 is 20 to 100 nM; on CDK4 it was no more than 20 nM.
For the compound `CC(=O)c1c2ccc(-c3nc(Nc4ccc(N5CCNCC5)cn4)ncc3F)nc2nn1C1CC1` [Compound I-29, N-(5-(piperazin-1-yl)-pyridin-2-yl)-5-fluoro-4-(2-cyclopropyl-3-acetyl-2H-7-azaindazol-6-yl)pyrimidin-2-amine], the IC50 on CDK6 and at CDK4 was no more than 20 nM each time.
